Key:
[1] = target: wild-type human cardiac sodium channel, hNav1.5 (Homo sapiens, UniProt Q14524); test: Late INa screening assay (QPatch whole cell patch clamp, Tefluthrin-induced late current); format: cell-based; settings: HEK293 hNav1.5, percent block of late INa
How it was run: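 HEK293 cells stably expressing hNav1.5 without beta subunits were whole-cell patch clamped at 23-25 °C, stepping from −120 to −20 mV for 250 ms at 0.1 Hz. Late current (240–265 ms) was induced with 10 μM Tefluthrin, and compounds were added typically at 0.3 or 1 μM. Percent block was taken against 0 Na baseline with rundown correction.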

hNaV1.2 (SCN2A) = target: T1, hNaV1.2 (SCN2A) (Homo sapiens, UniProt Q99250); test: Use-dependent inhibition of the CNS Nav1.2 sodium channel; format: cell-based; settings: use-dependent block, 25 Hz, pulse 20, read-out: Nav1.2 UDB 25 Hz 10 uM
T1 construct: expressed in transfected cells
T1 sequence (Q99250 whole entry): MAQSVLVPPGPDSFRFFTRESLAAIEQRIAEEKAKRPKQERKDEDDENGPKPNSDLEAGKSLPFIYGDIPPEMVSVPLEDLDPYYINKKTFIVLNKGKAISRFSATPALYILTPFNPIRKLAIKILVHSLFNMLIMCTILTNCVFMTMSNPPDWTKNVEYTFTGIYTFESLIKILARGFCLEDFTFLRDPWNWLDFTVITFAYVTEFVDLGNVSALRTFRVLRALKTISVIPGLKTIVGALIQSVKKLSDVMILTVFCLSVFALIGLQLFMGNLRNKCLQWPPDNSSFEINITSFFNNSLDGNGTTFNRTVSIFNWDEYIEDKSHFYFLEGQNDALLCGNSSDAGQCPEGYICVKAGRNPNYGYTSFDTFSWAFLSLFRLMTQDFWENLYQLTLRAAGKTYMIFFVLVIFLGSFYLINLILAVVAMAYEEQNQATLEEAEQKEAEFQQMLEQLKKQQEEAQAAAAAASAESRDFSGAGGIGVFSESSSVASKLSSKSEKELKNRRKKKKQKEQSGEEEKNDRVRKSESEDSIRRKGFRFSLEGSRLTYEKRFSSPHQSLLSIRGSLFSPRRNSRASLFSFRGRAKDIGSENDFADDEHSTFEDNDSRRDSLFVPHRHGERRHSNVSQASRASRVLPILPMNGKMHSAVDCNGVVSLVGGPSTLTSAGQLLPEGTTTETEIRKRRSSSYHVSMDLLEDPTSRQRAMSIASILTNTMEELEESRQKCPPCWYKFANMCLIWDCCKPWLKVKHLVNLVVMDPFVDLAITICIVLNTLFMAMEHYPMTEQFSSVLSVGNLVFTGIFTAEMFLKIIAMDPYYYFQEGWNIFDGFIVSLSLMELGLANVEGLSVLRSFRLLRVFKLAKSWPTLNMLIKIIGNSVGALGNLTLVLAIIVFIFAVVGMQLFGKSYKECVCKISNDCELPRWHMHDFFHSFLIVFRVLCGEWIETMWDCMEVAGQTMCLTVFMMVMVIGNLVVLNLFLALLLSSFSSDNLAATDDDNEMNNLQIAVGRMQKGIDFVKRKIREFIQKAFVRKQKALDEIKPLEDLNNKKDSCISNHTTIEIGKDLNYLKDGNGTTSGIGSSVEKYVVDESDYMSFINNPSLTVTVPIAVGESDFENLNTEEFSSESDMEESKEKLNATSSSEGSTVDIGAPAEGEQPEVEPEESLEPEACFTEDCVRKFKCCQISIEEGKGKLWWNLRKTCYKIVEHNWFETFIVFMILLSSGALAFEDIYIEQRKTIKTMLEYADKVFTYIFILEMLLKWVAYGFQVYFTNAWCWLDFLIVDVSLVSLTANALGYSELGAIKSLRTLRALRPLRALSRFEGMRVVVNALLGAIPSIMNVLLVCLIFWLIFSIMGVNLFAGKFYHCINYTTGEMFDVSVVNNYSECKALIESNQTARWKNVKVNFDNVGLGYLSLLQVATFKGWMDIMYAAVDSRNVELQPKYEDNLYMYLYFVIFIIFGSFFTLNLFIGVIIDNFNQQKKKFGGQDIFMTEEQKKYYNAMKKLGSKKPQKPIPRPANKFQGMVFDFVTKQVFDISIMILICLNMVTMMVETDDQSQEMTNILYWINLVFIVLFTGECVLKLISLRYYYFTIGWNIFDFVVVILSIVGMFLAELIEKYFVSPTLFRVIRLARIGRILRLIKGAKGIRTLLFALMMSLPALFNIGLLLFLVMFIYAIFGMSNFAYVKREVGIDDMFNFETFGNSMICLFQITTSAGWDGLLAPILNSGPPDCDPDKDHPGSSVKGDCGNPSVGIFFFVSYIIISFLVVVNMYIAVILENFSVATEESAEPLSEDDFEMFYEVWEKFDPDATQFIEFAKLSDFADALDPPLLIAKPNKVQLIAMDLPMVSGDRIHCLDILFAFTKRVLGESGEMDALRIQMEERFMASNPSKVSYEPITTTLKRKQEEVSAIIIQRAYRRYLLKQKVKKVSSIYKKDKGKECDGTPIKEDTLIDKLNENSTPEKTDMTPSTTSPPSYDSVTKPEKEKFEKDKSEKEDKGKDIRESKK
T1 sequence (Q07699 19-218 partner): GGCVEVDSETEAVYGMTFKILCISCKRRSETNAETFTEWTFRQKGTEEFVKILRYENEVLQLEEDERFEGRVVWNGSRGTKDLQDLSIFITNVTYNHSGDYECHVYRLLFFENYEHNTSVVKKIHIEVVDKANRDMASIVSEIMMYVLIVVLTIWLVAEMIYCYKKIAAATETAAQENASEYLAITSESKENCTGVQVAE
T1 sequence (O60939 30-215 partner): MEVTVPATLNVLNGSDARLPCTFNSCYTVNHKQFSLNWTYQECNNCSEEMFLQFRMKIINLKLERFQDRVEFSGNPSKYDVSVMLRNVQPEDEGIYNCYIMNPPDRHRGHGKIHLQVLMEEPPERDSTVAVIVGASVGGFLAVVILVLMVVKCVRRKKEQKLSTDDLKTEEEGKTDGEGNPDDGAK
How it was run: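 Use-dependent block of human Nav1.2 was measured by automated whole-cell patch clamp (QPatch) in HEK-293 cells stably expressing hNaV1.2 with SCN1B and SCN2B. From a holding potential of −120 mV, a train of 20 pulses to 0 mV (20 ms, 25 Hz) was applied. Peak current at pulse 20 was normalized to the first pulse, and percent inhibition was calculated relative to compound-free recordings.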

Chain of wild-type human cardiac sodium channel, hNav1.5 (Q14524 whole entry): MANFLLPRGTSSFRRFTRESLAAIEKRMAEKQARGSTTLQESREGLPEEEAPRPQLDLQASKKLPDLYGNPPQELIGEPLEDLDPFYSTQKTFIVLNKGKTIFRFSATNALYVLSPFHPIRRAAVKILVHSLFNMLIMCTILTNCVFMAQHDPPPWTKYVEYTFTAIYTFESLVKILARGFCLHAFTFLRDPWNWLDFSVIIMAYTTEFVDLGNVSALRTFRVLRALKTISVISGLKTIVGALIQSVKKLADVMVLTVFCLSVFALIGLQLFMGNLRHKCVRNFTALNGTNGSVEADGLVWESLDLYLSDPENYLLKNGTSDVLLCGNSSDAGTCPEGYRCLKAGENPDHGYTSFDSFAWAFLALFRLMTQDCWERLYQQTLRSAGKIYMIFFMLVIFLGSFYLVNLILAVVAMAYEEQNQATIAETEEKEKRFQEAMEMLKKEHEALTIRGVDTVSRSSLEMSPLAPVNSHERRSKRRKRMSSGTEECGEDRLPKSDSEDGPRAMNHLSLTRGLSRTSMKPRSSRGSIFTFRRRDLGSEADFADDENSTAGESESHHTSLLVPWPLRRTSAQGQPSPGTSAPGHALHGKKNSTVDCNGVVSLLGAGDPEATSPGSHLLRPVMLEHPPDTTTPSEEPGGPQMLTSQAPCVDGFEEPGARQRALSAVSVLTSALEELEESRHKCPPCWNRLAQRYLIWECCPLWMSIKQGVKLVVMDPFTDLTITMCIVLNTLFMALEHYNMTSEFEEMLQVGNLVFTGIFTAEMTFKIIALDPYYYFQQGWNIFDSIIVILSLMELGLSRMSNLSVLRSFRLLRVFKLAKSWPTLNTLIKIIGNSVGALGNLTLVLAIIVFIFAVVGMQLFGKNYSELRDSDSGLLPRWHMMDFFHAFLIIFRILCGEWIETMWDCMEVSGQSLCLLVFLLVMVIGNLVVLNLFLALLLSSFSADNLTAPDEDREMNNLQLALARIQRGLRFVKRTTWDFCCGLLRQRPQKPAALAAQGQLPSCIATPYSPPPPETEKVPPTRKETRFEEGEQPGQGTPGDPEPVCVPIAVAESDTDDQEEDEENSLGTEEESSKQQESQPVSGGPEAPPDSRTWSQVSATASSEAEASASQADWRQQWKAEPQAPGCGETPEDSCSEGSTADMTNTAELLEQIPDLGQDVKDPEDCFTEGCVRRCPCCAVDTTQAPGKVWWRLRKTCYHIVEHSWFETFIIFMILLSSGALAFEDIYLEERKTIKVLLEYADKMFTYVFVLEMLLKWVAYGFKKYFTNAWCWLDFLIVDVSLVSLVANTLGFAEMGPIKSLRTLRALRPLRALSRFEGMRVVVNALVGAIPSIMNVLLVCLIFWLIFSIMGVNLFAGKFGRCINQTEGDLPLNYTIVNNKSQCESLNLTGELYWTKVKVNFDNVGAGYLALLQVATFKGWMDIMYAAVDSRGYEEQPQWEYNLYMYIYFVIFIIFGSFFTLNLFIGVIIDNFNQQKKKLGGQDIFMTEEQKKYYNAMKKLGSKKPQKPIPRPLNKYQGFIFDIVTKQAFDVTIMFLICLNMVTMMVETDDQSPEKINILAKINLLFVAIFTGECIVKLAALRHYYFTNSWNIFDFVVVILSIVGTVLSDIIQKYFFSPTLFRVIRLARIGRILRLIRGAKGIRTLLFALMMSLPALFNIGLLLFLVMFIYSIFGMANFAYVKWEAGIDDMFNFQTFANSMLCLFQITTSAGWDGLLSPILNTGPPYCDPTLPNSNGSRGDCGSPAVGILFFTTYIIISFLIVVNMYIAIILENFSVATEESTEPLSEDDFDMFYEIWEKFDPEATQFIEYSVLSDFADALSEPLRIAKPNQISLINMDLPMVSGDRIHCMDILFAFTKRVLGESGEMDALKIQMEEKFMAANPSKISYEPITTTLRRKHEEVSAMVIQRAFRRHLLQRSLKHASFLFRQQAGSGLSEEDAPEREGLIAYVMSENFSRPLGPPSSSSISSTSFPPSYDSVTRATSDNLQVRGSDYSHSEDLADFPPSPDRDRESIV

Structure (SMILES)	inhibition at 0.3 µM [1] [%]	inhibition at 1 µM [1] [%]	inhibition at 10 µM (hNaV1.2 (SCN2A)) [%]
CCN(CC)C(=O)COc1noc2ccc(-c3ccc(OC(F)(F)F)cc3)cc12 [Example 150, N,N-diethyl-2-((5-(4-(trifluoromethoxy)phenyl)benzo[d]isoxazol-3-yl)oxy)acetamide]	49.4	68.2	51
CN(C)c1noc2ccc(-c3ccc(OC(F)(F)F)cc3)cc12 [Example 133, N,N-dimethyl-5-(4-(trifluoromethoxy)phenyl)benzo[d]isoxazol-3-amine]		45.8	29.2
CC(C)[C@@H](COc1noc2ccc(-c3ccc(OC(F)(F)F)cc3)cc12)N1CCCC1=O [Example 120, (S)-1-(3-methyl-1-((5-(4-(trifluoromethoxy)phenyl)benzo[d]isoxazol-3-yl)oxy)butan-2-yl)pyrrolidin-2-one]	35.8	58.2	74.4
CC(C)(C)OC(=O)N1CCOC[C@H]1COc1noc2ccc(-c3ccc(OC(F)(F)F)cc3)cc12 [Example 111, tert-butyl(S)-3-(((5-(4-(trifluoromethoxy)phenyl)benzo[d]isoxazol-3-yl)oxy)methyl)morpholine-4-carboxylate]		35.1	47.3
FC(F)(F)Oc1ccc(-c2ccc3onc(OCCn4cncn4)c3c2)cc1 [Example 58, 3-(2-(1H-1,2,4-triazol-1-yl)ethoxy)-5-(4-(trifluoromethoxy)phenyl)benzo[d]isoxazole]	36.7	55	14.5
CC(=O)N1CCOC[C@H]1COc1noc2ccc(-c3ccc(OC(F)(F)F)cc3)cc12 [Example 115, (S)-1-(3-(((5-(4-(trifluoromethoxy)phenyl)benzo[d]isoxazol-3-yl)oxy)methyl)morpholino)ethan-1-one]	23.5	56.7	70.8
O=C1CCCN1CCNc1noc2ccc(-c3ccc(OC(F)(F)F)cc3)cc12 [Example 135, 1-(2-((5-(4-(trifluoromethoxy)phenyl)benzo[d]isoxazol-3-yl)amino)ethyl)pyrrolidin-2-one]	19.7	48.8	76.5
COc1cc(-c2ccc(OC(F)(F)F)cc2)cc2c(OCc3ncccn3)noc12 [Example 22, 7-methoxy-3-(pyrimidin-2-ylmethoxy)-5-(4-(trifluoromethoxy)phenyl)benzo[d]isoxazole]	17.7	55.9	40
FC(F)(F)Oc1cccc(-c2ccc3onc(OCc4ncccn4)c3c2)c1 [Example 10, 3-(pyrimidin-2-ylmethoxy)-5-(3-(trifluoromethoxy)phenyl)benzo[d]isoxazole]		41	< 5

Reference: patent publication US9416115B2, “Fused heterocyclic compounds as ion channel modulators” (Gilead Sciences, Inc., priority 2013, dated 2016)
